Measured values from patent US9006250B2, “4-amino-6-(heterocyclic)picolinates and 6-amino-2-(heterocyclic)pyrimidine-4-carboxylates and their use as herbicides” (Dow AgroSciences, LLC, priority 2013, dated 2015).

Tests used:
[1] = tested on: ORYSA: rice (Oryza sativa); assay: Post-Emergent Test II herbicidal activity; format: in vivo; details: post-emergence, 336 h, 14 days, read-out: Visual Growth Reduction (%) 14 Days After Application ORYSA; for pest or weed control at 35 g/ha: 35 g ai/ha; for pest or weed control at 70 g/ha: 70 g ai/ha; for pest or weed control at 140 g/ha: 140 g ai/ha
How it was run: (§1)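 Greenhouse post-emergence spray, 1st–2nd true leaf stage. Track sprayer, 187 L/ha, acetone/DMSO/IPA/crop oil/Triton formulation; 1×, ½×, ¼×, ⅛×, 1/16× rates. Subirrigated; % injury vs untreated, 14 d.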

[2] = tested on: CYPES: yellow nutsedge (Cyperus esculentus); assay: Post-Emergent Test II herbicidal activity; format: in vivo; details: post-emergence, 336 h, 14 days, read-out: Visual Growth Reduction (%) 14 Days After Application CYPES; for pest or weed control at 35 g/ha: 35 g ai/ha; for pest or weed control at 70 g/ha: 70 g ai/ha; for pest or weed control at 140 g/ha: 140 g ai/ha
How it was run: as §1

[3] = tested on: CHEAL: lambsquarters (Chenopodium album); assay: Post-Emergent Test II herbicidal activity; format: in vivo; details: post-emergence, 336 h, 14 days, read-out: Visual Growth Reduction (%) 14 Days After Application CHEAL; for pest or weed control at 35 g/ha: 35 g ai/ha; for pest or weed control at 70 g/ha: 70 g ai/ha; for pest or weed control at 140 g/ha: 140 g ai/ha
How it was run: as §1

[4] = tested on: ABUTH: velvetleaf (Abutilon theophrasti); assay: Post-Emergent Test II herbicidal activity; format: in vivo; details: post-emergence, 336 h, 14 days, read-out: Visual Growth Reduction (%) 14 Days After Application ABUTH; for pest or weed control at 35 g/ha: 35 g ai/ha; for pest or weed control at 70 g/ha: 70 g ai/ha; for pest or weed control at 140 g/ha: 140 g ai/ha
How it was run: as §1

[5] = tested on: SETFA: giant foxtail (Setaria faberi); assay: Post-Emergent Test II herbicidal activity; format: in vivo; details: post-emergence, 336 h, 14 days, read-out: Visual Growth Reduction (%) 14 Days After Application SETFA; for pest or weed control at 35 g/ha: 35 g ai/ha; for pest or weed control at 70 g/ha: 70 g ai/ha; for pest or weed control at 140 g/ha: 140 g ai/ha
How it was run: as §1

[6] = tested on: BRSNN: oilseed rape, canola (Brassica napus); assay: Post-Emergent Test II herbicidal activity; format: in vivo; details: post-emergence, 336 h, 14 days, read-out: Visual Growth Reduction (%) 14 Days After Application BRSNN; for pest or weed control at 35 g/ha: 35 g ai/ha; for pest or weed control at 70 g/ha: 70 g ai/ha; for pest or weed control at 140 g/ha: 140 g ai/ha
How it was run: as §1

[7] = tested on: TRZAS: wheat, spring (Triticum aestivum); assay: Post-Emergent Test II herbicidal activity; format: in vivo; details: post-emergence, 336 h, 14 days, read-out: Visual Growth Reduction (%) 14 Days After Application TRZAS; for pest or weed control at 35 g/ha: 35 g ai/ha; for pest or weed control at 70 g/ha: 70 g ai/ha; for pest or weed control at 140 g/ha: 140 g ai/ha
How it was run: as §1

[8] = tested on: HELAN: sunflower (Helianthus annuus); assay: Post-Emergent Test II herbicidal activity; format: in vivo; details: post-emergence, 336 h, 14 days, read-out: Visual Growth Reduction (%) 14 Days After Application HELAN; for pest or weed control at 35 g/ha: 35 g ai/ha; for pest or weed control at 70 g/ha: 70 g ai/ha; for pest or weed control at 140 g/ha: 140 g ai/ha
How it was run: as §1

[9] = tested on: EPHHL: wild poinsettia (Euphorbia heterophylla); assay: Post-Emergent Test II herbicidal activity; format: in vivo; details: post-emergence, 336 h, 14 days, read-out: Visual Growth Reduction (%) 14 Days After Application EPHHL; for pest or weed control at 35 g/ha: 35 g ai/ha; for pest or weed control at 70 g/ha: 70 g ai/ha; for pest or weed control at 140 g/ha: 140 g ai/ha
How it was run: as §1

[10] = tested on: AMARE: redroot pigweed (Amaranthus retroflexus); assay: Post-Emergent Test II herbicidal activity; format: in vivo; details: post-emergence, 336 h, 14 days, read-out: Visual Growth Reduction (%) 14 Days After Application AMARE; for pest or weed control at 35 g/ha: 35 g ai/ha; for pest or weed control at 70 g/ha: 70 g ai/ha; for pest or weed control at 140 g/ha: 140 g ai/ha
How it was run: as §1

[11] = tested on: ECHCG: barnyardgrass (Echinochloa crus-galli); assay: Post-Emergent Test II herbicidal activity; format: in vivo; details: post-emergence, 336 h, 14 days, read-out: Visual Growth Reduction (%) 14 Days After Application ECHCG; for pest or weed control at 35 g/ha: 35 g ai/ha; for pest or weed control at 70 g/ha: 70 g ai/ha; for pest or weed control at 140 g/ha: 140 g ai/ha
How it was run: as §1

[12] = tested on: ZEAMX: maize, corn (Zea mays); assay: Post-Emergent Test II herbicidal activity; format: in vivo; details: post-emergence, 336 h, 14 days, read-out: Visual Growth Reduction (%) 14 Days After Application ZEAMX; for pest or weed control at 35 g/ha: 35 g ai/ha; for pest or weed control at 70 g/ha: 70 g ai/ha; for pest or weed control at 140 g/ha: 140 g ai/ha
How it was run: as §1

Row | melting point [°C] | SMILES | pest or weed control at 35 g/ha [1] [%] | pest or weed control at 70 g/ha [1] [%] | pest or weed control at 140 g/ha [1] [%] | pest or weed control at 35 g/ha [2] [%] | pest or weed control at 70 g/ha [2] [%] | pest or weed control at 140 g/ha [2] [%] | pest or weed control at 35 g/ha [3] [%] | pest or weed control at 70 g/ha [3] [%] | pest or weed control at 140 g/ha [3] [%] | pest or weed control at 35 g/ha [4] [%] | pest or weed control at 70 g/ha [4] [%] | pest or weed control at 140 g/ha [4] [%] | pest or weed control at 35 g/ha [5] [%] | pest or weed control at 70 g/ha [5] [%] | pest or weed control at 140 g/ha [5] [%] | pest or weed control at 35 g/ha [6] [%] | pest or weed control at 70 g/ha [6] [%] | pest or weed control at 140 g/ha [6] [%] | pest or weed control at 35 g/ha [7] [%] | further results
1 | 180 to 182 | COC(=O)c1nc(-c2cc3nonc3cc2F)c(F)c(N)c1Cl [Compound 3, Methyl 4-amino-3-chloro-5-fluoro-6-(6-fluorobenzo[c][1,2,5]oxadiazol-5-yl)picolinate] | 0 to 29 | 0 to 29 | 0 to 29 | 60 to 74 | 95 to 100 | 95 to 100 | 85 to 94 | 85 to 94 | 85 to 94 | 45 to 59 | 0 to 29 | 0 to 29 | 45 to 59 | 45 to 59 | 45 to 59 | 85 to 94 | 85 to 94 | 95 to 100 | 45 to 59 | pest or weed control at 70 g/ha [7]: 45 to 59%; pest or weed control at 140 g/ha [7]: 60 to 74%; pest or weed control at 35 g/ha [8]: 85 to 94%; pest or weed control at 70 g/ha [8]: 85 to 94%; pest or weed control at 140 g/ha [8]: 95 to 100%; pest or weed control at 35 g/ha [9]: 45 to 59%; pest or weed control at 70 g/ha [9]: 45 to 59%; pest or weed control at 140 g/ha [9]: 60 to 74%; pest or weed control at 35 g/ha [10]: 95 to 100%; pest or weed control at 70 g/ha [10]: 95 to 100%; pest or weed control at 140 g/ha [10]: 95 to 100%; pest or weed control at 35 g/ha [11]: 95 to 100%; pest or weed control at 70 g/ha [11]: 95 to 100%; pest or weed control at 140 g/ha [11]: 75 to 84%; pest or weed control at 35 g/ha [12]: 60 to 74%; pest or weed control at 70 g/ha [12]: 60 to 74%; pest or weed control at 140 g/ha [12]: 75 to 84%
2 | 199 to 201 | COC(=O)c1nc(-c2cc3nonc3cc2F)cc(N)c1Cl [Compound 4, Methyl 4-amino-3-chloro-6-(6-fluorobenzo[c][1,2,5]oxadiazol-5-yl)picolinate] | 0 to 29 | 0 to 29 | 30 to 44 | 95 to 100 | 95 to 100 | 95 to 100 | 85 to 94 | 95 to 100 | 95 to 100 | 85 to 94 | 95 to 100 | 95 to 100 | 60 to 74 | 60 to 74 | 60 to 74 | 85 to 94 | 95 to 100 | 95 to 100 | 60 to 74 | pest or weed control at 70 g/ha [7]: 75 to 84%; pest or weed control at 140 g/ha [7]: 75 to 84%; pest or weed control at 35 g/ha [8]: 85 to 94%; pest or weed control at 70 g/ha [8]: 85 to 94%; pest or weed control at 140 g/ha [8]: 85 to 94%; pest or weed control at 35 g/ha [9]: 95 to 100%; pest or weed control at 70 g/ha [9]: 95 to 100%; pest or weed control at 140 g/ha [9]: 95 to 100%; pest or weed control at 35 g/ha [10]: 95 to 100%; pest or weed control at 70 g/ha [10]: 95 to 100%; pest or weed control at 140 g/ha [10]: 95 to 100%; pest or weed control at 35 g/ha [11]: 85 to 94%; pest or weed control at 70 g/ha [11]: 95 to 100%; pest or weed control at 140 g/ha [11]: 85 to 94%; pest or weed control at 35 g/ha [12]: 85 to 94%; pest or weed control at 70 g/ha [12]: 85 to 94%; pest or weed control at 140 g/ha [12]: 85 to 94%
3 | 224 to 226 | COC(=O)c1nc(-c2cc3nonc3cc2Cl)cc(N)c1Cl [Compound 8] | 0 to 29 | 0 to 29 | 0 to 29 | 0 to 29 | 0 to 29 | 0 to 29 | 0 to 29 | 0 to 29 | 0 to 29 | 0 to 29 | 0 to 29 | 0 to 29 | 0 to 29 | 0 to 29 | 0 to 29 | 0 to 29 | 0 to 29 | 30 to 44 | 0 to 29 | pest or weed control at 70 g/ha [7]: 0 to 29%; pest or weed control at 140 g/ha [7]: 0 to 29%; pest or weed control at 35 g/ha [8]: 0 to 29%; pest or weed control at 70 g/ha [8]: 0 to 29%; pest or weed control at 140 g/ha [8]: 0 to 29%; pest or weed control at 35 g/ha [9]: 0 to 29%; pest or weed control at 70 g/ha [9]: 0 to 29%; pest or weed control at 140 g/ha [9]: 0 to 29%; pest or weed control at 35 g/ha [10]: 0 to 29%; pest or weed control at 70 g/ha [10]: 0 to 29%; pest or weed control at 140 g/ha [10]: 0 to 29%; pest or weed control at 35 g/ha [11]: 0 to 29%; pest or weed control at 70 g/ha [11]: 0 to 29%; pest or weed control at 140 g/ha [11]: 0 to 29%; pest or weed control at 35 g/ha [12]: 0 to 29%; pest or weed control at 70 g/ha [12]: 0 to 29%; pest or weed control at 140 g/ha [12]: 0 to 29%
